Four compounds from US8633250B2, “Cell repair and regeneration by suramin and related polysulfonated napthylureas” (MUSC Foundation for Research Development, priority 2006, dated 2014) can be followed below.

What all share (format): cell-based, rabbit
The subject of assay [1] is renal proximal tubule cells (RPTC). As to the kind of experiment: Cell cycle analysis by flow cytometry: number of RPTC in S-phase. To be noted: 50 μM suramin 24 hr; 20 μM LY294002, 10 μM U0126 or 10 μM PP1. The method, then: (§1) Isolation and culture of renal proximal tubules: Isolation and culture of renal proximal tubules were performed as described previously (Rodeheaver et al., 1990; Nowak and Schnellmann, 1995; Nowak and Schnellmann, 1996). Female New Zealand White rabbits (1.5-2.5 kg) were purchased from Myrtle's Rabbitry (Thompson Station, Tenn.). RPTC were isolated using the iron oxide perfusion method and grown in 6-well tissue culture dishes under improved conditions. The culture medium was an 1:1 mixture of DMEM/Ham's F-12 (without glucose, phenol red, or sodium pyruvate) supplemented with 15 mM HEPES buffer, 2.5 mM L-glutamine, 1 μM pyridoxine HCl, 15 mM sodium bicarbonate, and 6 mM lactate. Hydrocortisone (50 μM), selenium (5 ng/ml), human transferrin (5 μg/ml) bovine insulin (10 nM) and L-ascorbic acid-2-phosphate (50 μM) were added daily to fresh culture medium.
(§2) Isolated tubules were plated at 1 mg protein/well in a 6-well plate. On day 2, RPTC were incubated in the presence and absence of various pharmacological inhibitors for different time periods as indicated in the figure legends. For some experiments, suramin was added to RPTC on day 3 and then incubated for 24 hr in the presence or absence of various inhibitors before samples were taken.
Cell cycle analysis: Cell cycle phase was determined using flow cytometry as previously described (Zhuang et al., 2004). Cells were harvested, stained with propidium iodide and the number of cells in S-phase of cell cycle determined.
On the technique in general: Flow cytometry measures light scatter and fluorescence of single cells or particles in a stream.

Assay [2] has the same test system. As to the kind of experiment: MTT assay of RPTC proliferation. As to conditions: 50 μM suramin 48 hr; 10 μM AG1478, 20 μM LY294002, 10 μM U0126 or 10 μM PP1. Here is the method:
as §1, with “[…],” for “Schnellmann,”, “medium. Isolated tubules were plated at 1 mg protein/well in a 6-well plate. On day 2, RPTC were incubated in the presence and absence of various pharmacological inhibitors for different time periods as indicated in the figure legends. […] MTT assay: The 3-(4,5-dimethylthiazol-2-yl)-2,5-diphenyl-tetrazolium bromide (MTT) assay was used to assess cell proliferation (Kooistra et al., 1997; […] et al., 2002). Following a 48 hr exposure to various inhibitors or diluents, MTT was added (final concentration of 0.5 mg/ml) to individual cultures for an additional 30 min. Tetrazolium was released by dimethyl sulfoxide and optical density was determined with a spectrophotometer (570 nm). Data were normalized to diluent-treated cultures.” for “medium.”
(Tetrazolium assays rely on reduction of a dye to a coloured formazan, in cell work by metabolically active cells.)

Assay [3] has the same test system. As to the kind of experiment: RPTC scattering, fibroblast-like morphology and lamellipodia (bright field, phalloidin staining). As to conditions: for effect of inhibitor on suramin-induced fibroblast-like phenotype and RPTC scattering: 50 μM suramin 24 hr, 10 μM AG1478, 20 μM LY294002, 10 μM U0126 or 10 μM PP1. The method, then:
as §1, §2
Immunocytochemistry: After various treatments, RPTC were fixed with 10% buffered formalin, washed, permeabilized, and blocked with BSA. Fluorescein conjugated phalloidin was added and RPTC visualized by fluorescent microscopy.

In another assay the test system is Akt. The experiment in a line: Immunoblot of Akt phosphorylation in RPTC. As to conditions: pretreated 1 hr with 20 μM LY294002, or 10 μM PP1, or AG1478; 50 μM suramin 30 min. Here is the method:
(§3) Preparation of cell lysates and immunoblot analysis: After different treatments, RPTC were washed twice with PBS and harvested in lysis buffer (0.25 M Tris-HCl, pH 6.8, 4% SDS, 10% glycerol, 1 mg/ml bromophenol blue, and 0.5% 2-mercaptoethanol). Cells were disrupted by sonication for 15 seconds and lysates stored at −20 °C. Equal amounts of cellular protein lysate were separated on 10% polyacrylamide gels and transferred to nitrocellulose membranes. After treatment with 5% skim milk at 4 °C overnight, membranes were incubated with various antibodies for 1 hr, and then incubated with an appropriate horseradish-peroxidase conjugated secondary antibody (Amersham, Piscataway, N.J.). Bound antibodies were visualized following chemiluminescence detection on autoradiographic film.
We evaluated whether the PI3K/Akt and/or ERK1/2 pathways are activated in RPTC in response to suramin. The activation of the PI3K and ERK1/2 pathways was measured using immunoblot analysis and antibodies that recognize phosphorylated Akt at serine 473 (a target of PI3K) and ERK1/2, respectively. Total Akt and ERK1/2 content was measured using immunoblot analysis and antibodies that recognize the Akt and ERK1/2 independent of their phosphorylation state to control for gel loading. Suramin-induced Akt phosphorylation within 10 min, reached a maximum at 30 min and was sustained through 120 min of treatment (FIG. 6A). ERK1/2 phosphorylation also was induced within 10 min and maximal at 30 min, but decreased to the control levels at 120 min.
(In western blotting, separated proteins are transferred to a membrane and probed.)

The next assay deals with Src. As to the kind of experiment: Immunoblot of Src phosphorylation (Tyr416, Tyr527) in RPTC. To be noted: PP1, suramin-treated RPTC. Here is the method: as §3
To determine whether suramin activates Src and whether Src mediates Akt activation, we examined the effect of suramin on Src phosphorylation and the effect of PP1 on suramin-induced Akt phosphorylation. Src activation requires dephosphorylation of tyrosine 527 (Zheng et al., 2000) and phosphorylation of tyrosine 416 in the catalytic domain (Leu and Maa, 2003). Src phosphorylation at tyrosine 416 was detected in control samples. Following suramin-treatment, Src phosphorylation increased within 10 min and returned to the basal level at 60 min (FIG. 8A). […] Thus, suramin-induced RPTC proliferation and scattering is dependent on Src activity and Src is required for activation of the PI3K/Akt signaling pathway.

Another assay has as its system EGF receptor. The experiment in a line: Immunoblot of EGF receptor phosphorylation (Tyr1068) in RPTC. As to conditions: pretreated with 10 μM AG1478 for 1 hr, then EGF 10 min. Here is the method: as §3
To determine whether suramin caused EGF receptor activation, we performed immunoblot analysis using an antibody against phosphorylated tyrosine 1068 of the EGF receptor. Total EGF receptor content was measured using immunoblot analysis and an antibody that recognizes the EGF receptor independent of its phosphorylation state to control for gel loading. […] Thus, suramin induced RPTC proliferation and scattering is not through the EGF receptor.

The next assay concerns ERK1/2. The experiment in a line: Immunoblot of ERK1/2 phosphorylation in RPTC. As to conditions: pretreated with 10 μM U0126 for 1 hr; presence and absence of 50 μM suramin (30 min). The method, then:
as §3
We evaluated whether the PI3K/Akt and/or ERK1/2 pathways are activated in RPTC in response to suramin. The activation of the PI3K and ERK1/2 pathways was measured using immunoblot analysis and antibodies that recognize phosphorylated Akt at serine 473 (a target of PI3K) and ERK1/2, respectively. Total Akt and ERK1/2 content was measured using immunoblot analysis and antibodies that recognize the Akt and ERK1/2 independent of their phosphorylation state to control for gel loading.

Take `Cc1ccc(-c2nn(C(C)(C)C)c3ncnc(N)c23)cc1` [PP1]: the “effect of inhibitor on suramin-induced RPTC proliferation (number of RPTC in S-phase)” value in assay [1] is “inhibited RPTC proliferation in control and suramin-treated cells”. The “effect of inhibitor on suramin-induced RPTC proliferation (MTT assay)” value (“effect of inhibitor … (MTT assay)” for short) in assay [2] was “inhibited RPTC proliferation in control and suramin-treated cells”. Besides, the “effect of inhibitor on suramin-induced fibroblast-like phenotype and RPTC scattering” value in assay [3] is on record as “blocked”. Further, in the assay with Akt, the “effect of inhibitor on Akt phosphorylation” value is given as “blocked suramin-induced phosphorylation of Akt”. In addition, the “effect of inhibitor on suramin-induced Src phosphorylation” value in the assay with Src was “inhibition of suramin-induced Src and Akt phosphorylation”.

Turning to `COc1cc2ncnc(Nc3cccc(Cl)c3)c2cc1OC` [AG1478, 4-(3-chloroanilino)-6,7-dimethoxyquinazoline], the “effect of inhibitor … (MTT assay)” value in assay [2] is reported as “did not affect suramin-induced RPTC proliferation”. Besides, the “effect of inhibitor on EGF-induced fibroblast-like phenotype and scattering” value in assay [3] (10 ng/ml EGF 24 hr, 10 μM AG1478) is “blocked EGF-induced formation of the fibroblast-like phenotype and scattering”. The “effect of inhibitor on suramin-induced fibroblast-like phenotype and RPTC scattering” value in assay [3] was “did not affect suramin-induced formation of the fibroblast-like phenotype and scattering”. Moreover, in the assay on EGF receptor, the “effect of inhibitor on EGF-induced EGF receptor phosphorylation” value is reported as “inhibited EGF-induced EGF receptor phosphorylation”. Moreover, in the assay on Akt, the “effect of inhibitor on Akt phosphorylation” value is “did not affect suramin-induced phosphorylation of Akt”.

As for `O=c1cc(N2CCOCC2)oc2c(-c3ccccc3)cccc12` [LY294002, 2-(4-Morpholinyl)-8-phenyl-4H-1-benzopyran-4-one], in assay [1], the “effect of inhibitor on suramin-induced RPTC proliferation (number of RPTC in S-phase)” value is reported as “decreased suramin-induced proliferation”. Further, in assay [2], the “effect of inhibitor … (MTT assay)” value is “decreased suramin-induced proliferation”. In addition, the “effect of inhibitor on suramin-induced fibroblast-like phenotype and RPTC scattering” value in assay [3] was “partially inhibited”. The “effect of inhibitor on Akt phosphorylation” value with Akt was “blocked Akt phosphorylation”.

Consider `N#CC(=C(N)Sc1ccccc1N)C(C#N)=C(N)Sc1ccccc1N` [U0126, 1,4-Diamino-2,3-dicyano-1,4-bis(2-aminophenylthio)butadiene], for which the “effect of inhibitor on suramin-induced RPTC proliferation (number of RPTC in S-phase)” value in assay [1] is given as “had no effect on proliferation”. In addition, the “effect of inhibitor … (MTT assay)” value in assay [2] was “had no effect on proliferation”. In addition, the “effect of inhibitor on suramin-induced fibroblast-like phenotype and RPTC scattering” value in assay [3] is recorded as “had no effect”. In addition, the “effect of inhibitor on ERK1/2 phosphorylation” value in the assay on ERK1/2 is reported as “blocked ERK1/2 phosphorylation”.
